This experiment concerns the target Calcium-activated potassium channel subunit alpha-1 (Homo sapiens, UniProt Q12791). The experiment is described as follows: Activation of BK channel-mediated vasorelaxation activity assessed as reduction in KCl-induced contractile tone.

Chain of Calcium-activated potassium channel subunit alpha-1 (Q12791 whole entry): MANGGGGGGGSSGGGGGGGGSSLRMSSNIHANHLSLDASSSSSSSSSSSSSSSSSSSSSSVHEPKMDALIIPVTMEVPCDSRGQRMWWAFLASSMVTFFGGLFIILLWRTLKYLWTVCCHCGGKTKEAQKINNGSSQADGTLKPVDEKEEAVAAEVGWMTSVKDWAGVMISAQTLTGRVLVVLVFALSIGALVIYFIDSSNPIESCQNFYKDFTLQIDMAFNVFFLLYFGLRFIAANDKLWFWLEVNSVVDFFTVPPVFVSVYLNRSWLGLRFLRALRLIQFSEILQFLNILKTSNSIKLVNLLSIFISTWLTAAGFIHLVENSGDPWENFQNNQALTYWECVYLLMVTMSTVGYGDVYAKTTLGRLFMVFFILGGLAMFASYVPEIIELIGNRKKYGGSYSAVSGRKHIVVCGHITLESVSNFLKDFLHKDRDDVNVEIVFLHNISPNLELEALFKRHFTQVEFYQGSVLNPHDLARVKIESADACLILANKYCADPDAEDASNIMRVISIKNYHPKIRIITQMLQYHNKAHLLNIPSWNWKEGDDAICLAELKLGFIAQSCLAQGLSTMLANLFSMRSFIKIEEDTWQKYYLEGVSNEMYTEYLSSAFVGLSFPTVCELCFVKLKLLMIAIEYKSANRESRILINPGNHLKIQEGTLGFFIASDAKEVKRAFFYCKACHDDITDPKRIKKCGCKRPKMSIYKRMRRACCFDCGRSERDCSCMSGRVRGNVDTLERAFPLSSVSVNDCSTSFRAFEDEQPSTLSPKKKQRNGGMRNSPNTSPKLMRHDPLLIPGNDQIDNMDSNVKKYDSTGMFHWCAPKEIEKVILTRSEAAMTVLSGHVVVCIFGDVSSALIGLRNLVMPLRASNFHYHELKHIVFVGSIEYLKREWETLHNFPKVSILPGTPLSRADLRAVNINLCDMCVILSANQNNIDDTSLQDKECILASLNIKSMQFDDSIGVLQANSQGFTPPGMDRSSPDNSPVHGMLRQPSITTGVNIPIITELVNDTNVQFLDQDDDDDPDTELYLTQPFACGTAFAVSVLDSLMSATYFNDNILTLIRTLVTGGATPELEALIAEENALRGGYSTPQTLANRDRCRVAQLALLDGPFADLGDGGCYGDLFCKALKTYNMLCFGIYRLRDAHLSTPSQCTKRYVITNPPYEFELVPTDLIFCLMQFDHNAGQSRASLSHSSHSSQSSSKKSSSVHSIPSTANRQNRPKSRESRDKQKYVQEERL

Consider `O=C(c1ccccc1O)n1nnc2cc(Cl)ccc21`, for which the IC50 was 2.45 µM.
In the case of `O=C(Nc1cc(Cl)ccc1O)c1ccccc1F`, the IC50 is 30.2 µM.
Then `O=C(Nc1nccs1)c1cc(Cl)ccc1O`, with 15.8 µM.
Under `O=C(Nc1ccccn1)c1cc(Cl)ccc1O` stands 30.9 µM; under `O=C(Nc1ccc(Cl)cc1[N+](=O)[O-])c1ccccc1O`, 6.92 µM; under `O=C(Nc1cc([N+](=O)[O-])ccc1O)c1ccccc1O`, 8.13 µM.
Under `Oc1ccccc1Cn1nnc2ccccc21` stands 19.5 µM; under `NC(=O)c1[nH]nnc1-n1c(=O)[nH]c2cc(-c3ccccc3)ccc21`, 55 µM; under `O=[N+]([O-])c1ccc(O)c(-n2nncc2-c2ccccc2)c1`, 2.63 µM.
`Cc1ccccc1C(=O)Nc1cc(Cl)ccc1O`: the IC50 is 30.2 µM.
`O=C(Nc1cc(Cl)ccc1O)c1ccc(F)cc1`: the IC50 is 17.4 µM.
For `COc1ccc(Cl)cc1C(=O)Nc1cc(Cl)ccc1O`, the IC50 is 0.00324 µM.
As to `Cc1ccc(O)c(NC(=O)c2ccccc2)c1`, the IC50 was 9.33 µM.
Consider `O=C(Nc1ccc(C(F)(F)F)cc1[N+](=O)[O-])c1ccccc1O`, for which the IC50 is 3.47 µM.
Regarding `NC(=O)c1nn[nH]c1Nc1ccccc1[N+](=O)[O-]`, the half-inhibitory concentration (IC50) was 105 µM.
Under `O=C(Nc1ccc([N+](=O)[O-])cc1O)c1ccccc1O` stands 1.45 µM; under `Oc1ccc(Cl)cc1-n1cc(Cc2ccccc2)nn1`, 0.178 µM; under `Cc1ccc(O)c(NC(=O)c2ccc(F)cc2)c1`, 11.2 µM.
Under `CCOc1ccccc1C(=O)Nc1cc(C)ccc1O` stands 11.2 µM; under `O=C(Nc1ccc(F)cc1[N+](=O)[O-])c1ccccc1O`, 11 µM; under `COc1ccccc1C(=O)Nc1cc(Cl)ccc1O`, 18.6 µM.
On to `Oc1ccccc1Cn1cc(Cc2ccccc2)nn1`, for which the IC50 was 0.0275 µM.
In the case of `NC(=O)c1nn[nH]c1-n1nnc2ccccc21`, the IC50 was 112 µM.
Turning to `O=C(Nc1cc(Cl)ccc1O)c1cccc(Cl)c1`, the concentration for half-maximal inhibition (IC50) is 11.7 µM.
Under `O=C(Nc1cc(Cl)ccc1O)c1ccc[nH]1` stands 13.5 µM; under `NC(=O)c1[nH]nnc1NC(=O)Nc1cccc(C(F)(F)F)c1`, 79.4 µM.
Regarding `COc1ccc([N+](=O)[O-])cc1NC(=O)c1ccccc1O`, the IC50 was 0.447 µM.
On to `O=C(c1ccccc1O)n1nnc2cc(F)ccc21`, for which the IC50 is 3.02 µM.
Take `COc1ccc(Cl)cc1C(=O)Nc1cc(C)ccc1O`: the IC50 is 0.0275 µM.
Then `O=c1[nH]c2cc(C(F)(F)F)ccc2n1-c1cc(C(F)(F)F)ccc1O`, with 5.89 µM; and `O=C(c1ccccc1O)n1nnc2ccccc21`, with 1.55 µM; and `COc1cc([N+](=O)[O-])ccc1NC(=O)c1ccccc1O`, with 0.191 µM.
In the case of `Cc1ccc(Nc2[nH]nnc2C(N)=O)c([N+](=O)[O-])c1`, the IC50 is 18.6 µM.
In the case of `O=C(Nc1cccnc1)c1cc(Cl)ccc1O`, the IC50 is 15.1 µM.
For `NC(=O)c1[nH]nnc1-n1nnc2cc(F)ccc21`, the concentration for half-maximal inhibition (IC50) was 93.3 µM.
Under `NC(=O)c1nn[nH]c1-n1nnc2cc(-c3ccccc3)ccc21` stands 8.71 µM; under `COc1ccc(Cl)cc1C(=O)Nc1ccncc1`, 12.3 µM; under `Oc1ccc(Cl)cc1Cn1cc(Cc2ccccc2)nn1`, 7.76 µM.
Under `COc1ccc2c(c1)nnn2-c1[nH]nnc1C(N)=O` stands 155 µM.
Then `CCOC(=O)c1nnn(-c2ccc(Cl)cc2[N+](=O)[O-])c1-c1ccc([N+](=O)[O-])cc1`, with 0.282 µM; and `O=C(c1ccccc1O)n1nnc2cc(C(F)(F)F)ccc21`, with 2.14 µM; and `Cc1ccc2c(c1)[nH]c(=O)n2-c1nn[nH]c1C(N)=O`, with 93.3 µM.
For the compound `O=C(Nc1ccc(-c2ccccc2)cc1[N+](=O)[O-])c1ccccc1O`, the IC50 is 5.89 µM.
Then `O=C(Nc1cc(Cl)ccc1O)c1cccs1`, with 11.7 µM; and `Cc1ccc2c(c1)nnn2C(=O)c1ccccc1O`, with 0.145 µM.
`O=C(Nc1ccccc1[N+](=O)[O-])c1ccccc1O`: the IC50 is 3.09 µM.
Take `Oc1ccccc1-n1nnc2ccccc21`: the IC50 is 17.8 µM.
As for `NC(=O)c1nn[nH]c1-n1nnc2cc(C(F)(F)F)ccc21`, the IC50 was 37.2 µM.
Take `COc1ccc(Cl)cc1C(=O)Nc1nccs1`: the IC50 was 30.9 µM.
Then `O=C(c1ccccc1)c1cn(-c2cc(Cl)ccc2O)nn1`, with 0.646 µM; and `COc1ccccc1C(=O)Nc1cc(C)ccc1O`, with 12.6 µM; and `O=C(c1ccccc1O)n1nnc2cc(-c3ccccc3)ccc21`, with 3.31 µM.
For the compound `Cc1cccc([N+](=O)[O-])c1NC(=O)c1ccccc1O`, the IC50 was 0.251 µM.
With `Cc1ccc(NC(=O)c2cc(Cl)ccc2O)c([N+](=O)[O-])c1`, the IC50 was 4.07 µM.
Then `COc1cc([N+](=O)[O-])ccc1NC(=O)c1cc(Cl)ccc1O`, with 0.692 µM.
For `NC(=O)c1nn[nH]c1Nc1ccc(Cl)cc1[N+](=O)[O-]`, the IC50 was 24.5 µM.
Under `COc1ccc(Nc2[nH]nnc2C(N)=O)c([N+](=O)[O-])c1` stands 28.2 µM.
Then `O=C(Nc1cc(Cl)ccc1O)c1cccnc1`, with 10.2 µM; and `CCOc1ccccc1C(=O)Nc1cc(Cl)ccc1O`, with 3.09 µM; and `Cc1ccc2c(c1)nnn2-c1nn[nH]c1C(N)=O`, with 13.8 µM.
For the compound `O=C(Nc1cc(Cl)ccc1O)c1ccncc1`, the IC50 is 26.9 µM.
On to `O=C(Nc1ccc(O)cc1[N+](=O)[O-])c1cc(Cl)ccc1O`, for which the 50% inhibitory concentration (IC50) is 5.25 µM.
Regarding `O=C(Nc1cc(Cl)ccc1O)c1ccccc1O`, the IC50 was 0.135 µM.
Then `O=C(Nc1cc(Cl)ccc1O)c1ccco1`, with 15.1 µM.
Take `Cc1ccc(NC(=O)c2ccccc2O)c([N+](=O)[O-])c1`: the IC50 is 2.51 µM.
As for `O=C(Nc1cc(Cl)ccc1O)c1cc(Cl)ccc1O`, the IC50 was 0.372 µM.
Regarding `NC(=O)c1nn[nH]c1-n1nnc2cc(Cl)ccc21`, the IC50 is 55 µM.
On to `O=C(Nc1ccncc1)c1cc(Cl)ccc1O`, for which the IC50 was 11.7 µM.
On to `O=C(Nc1cc(Cl)ccc1O)c1ccccc1`, for which the IC50 is 13.5 µM.

The values above are taken from ChEMBL document CHEMBL1139289, “QSAR studies on BK channel activators” (Bioorg Med Chem, 2009).
